Experiments:
Format in all cases: biochemical
FGFR1 = FGFR1 (Homo sapiens (Human), UniProt P11362); test: FGFR enzymatic assay (FRET peptide phosphorylation), FGFR1; conditions: FGFR1 enzyme 0.02 nM, ATP 210 μM
Procedure, shortened: (§1)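 IC50 values were obtained from variable-slope sigmoidal dose-response fitting of a FRET read-out of peptide phosphorylation. The buffer, described for FGFR3, was 50 mM HEPES pH 7.5 with MgCl2, EGTA, Tween-20 and DTT.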

FGFR2 = FGFR2 (Homo sapiens (Human), UniProt P21802); test: FGFR enzymatic assay (FRET peptide phosphorylation), FGFR2; conditions: FGFR2 enzyme 0.01 nM, ATP 100 μM
Procedure, shortened: as §1

FGFR3 = FGFR3 (Homo sapiens (Human), UniProt P22607); test: FGFR enzymatic assay (FRET peptide phosphorylation), FGFR3; conditions: FGFR3 enzyme (Millipore), ATP 140 μM
Procedure, shortened: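 After 5-10 min pre-incubation of FGFR3 with serially diluted compound in pH 7.5 HEPES/MgCl2/EGTA/DTT buffer, the reaction proceeded 1 hr at 25° C. Phosphorylated peptide was detected by FRET, and IC50 was fitted with a variable-slope sigmoid.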

Measured: IC50

FGFR2, sequence (P21802 22-821): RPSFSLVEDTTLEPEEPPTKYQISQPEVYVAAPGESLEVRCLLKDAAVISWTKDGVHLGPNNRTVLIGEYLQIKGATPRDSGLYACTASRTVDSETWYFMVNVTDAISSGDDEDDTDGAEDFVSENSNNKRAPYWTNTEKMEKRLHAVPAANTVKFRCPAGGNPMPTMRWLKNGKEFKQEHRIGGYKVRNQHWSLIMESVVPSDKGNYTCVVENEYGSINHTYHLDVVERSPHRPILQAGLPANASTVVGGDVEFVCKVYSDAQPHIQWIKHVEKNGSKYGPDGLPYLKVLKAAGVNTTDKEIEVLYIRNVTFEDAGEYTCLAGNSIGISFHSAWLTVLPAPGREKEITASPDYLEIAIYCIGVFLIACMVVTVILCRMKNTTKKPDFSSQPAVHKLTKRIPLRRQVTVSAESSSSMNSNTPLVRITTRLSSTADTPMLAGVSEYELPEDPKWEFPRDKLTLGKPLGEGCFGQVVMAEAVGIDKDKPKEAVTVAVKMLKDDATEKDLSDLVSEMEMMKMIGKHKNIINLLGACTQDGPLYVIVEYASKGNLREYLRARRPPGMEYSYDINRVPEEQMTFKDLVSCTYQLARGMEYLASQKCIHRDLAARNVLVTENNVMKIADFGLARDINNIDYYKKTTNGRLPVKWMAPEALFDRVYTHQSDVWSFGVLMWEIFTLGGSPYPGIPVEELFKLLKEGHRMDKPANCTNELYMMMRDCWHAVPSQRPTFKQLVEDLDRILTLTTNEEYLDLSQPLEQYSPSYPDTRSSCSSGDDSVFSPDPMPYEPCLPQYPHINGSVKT
FGFR3, sequence (P22607 23-806): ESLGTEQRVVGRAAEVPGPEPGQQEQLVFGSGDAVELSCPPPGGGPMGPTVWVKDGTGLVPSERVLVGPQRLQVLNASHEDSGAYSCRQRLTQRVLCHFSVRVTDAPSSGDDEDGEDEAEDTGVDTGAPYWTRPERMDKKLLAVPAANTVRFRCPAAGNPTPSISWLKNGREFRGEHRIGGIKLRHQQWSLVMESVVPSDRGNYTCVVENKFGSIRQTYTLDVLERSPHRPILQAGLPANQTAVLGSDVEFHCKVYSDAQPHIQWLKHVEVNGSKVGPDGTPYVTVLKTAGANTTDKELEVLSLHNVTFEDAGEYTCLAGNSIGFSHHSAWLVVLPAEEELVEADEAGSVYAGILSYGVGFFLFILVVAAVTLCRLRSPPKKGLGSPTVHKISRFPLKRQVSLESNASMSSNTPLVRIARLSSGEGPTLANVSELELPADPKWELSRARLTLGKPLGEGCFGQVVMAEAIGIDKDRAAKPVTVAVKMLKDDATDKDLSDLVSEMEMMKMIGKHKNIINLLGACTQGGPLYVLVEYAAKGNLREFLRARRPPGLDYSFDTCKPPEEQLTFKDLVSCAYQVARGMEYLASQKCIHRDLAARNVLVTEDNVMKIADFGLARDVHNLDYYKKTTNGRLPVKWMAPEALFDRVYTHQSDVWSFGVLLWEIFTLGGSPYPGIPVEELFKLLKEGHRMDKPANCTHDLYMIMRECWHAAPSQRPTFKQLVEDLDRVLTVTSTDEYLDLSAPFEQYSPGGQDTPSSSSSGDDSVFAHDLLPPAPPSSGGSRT
FGFR1, sequence (P11362 22-822): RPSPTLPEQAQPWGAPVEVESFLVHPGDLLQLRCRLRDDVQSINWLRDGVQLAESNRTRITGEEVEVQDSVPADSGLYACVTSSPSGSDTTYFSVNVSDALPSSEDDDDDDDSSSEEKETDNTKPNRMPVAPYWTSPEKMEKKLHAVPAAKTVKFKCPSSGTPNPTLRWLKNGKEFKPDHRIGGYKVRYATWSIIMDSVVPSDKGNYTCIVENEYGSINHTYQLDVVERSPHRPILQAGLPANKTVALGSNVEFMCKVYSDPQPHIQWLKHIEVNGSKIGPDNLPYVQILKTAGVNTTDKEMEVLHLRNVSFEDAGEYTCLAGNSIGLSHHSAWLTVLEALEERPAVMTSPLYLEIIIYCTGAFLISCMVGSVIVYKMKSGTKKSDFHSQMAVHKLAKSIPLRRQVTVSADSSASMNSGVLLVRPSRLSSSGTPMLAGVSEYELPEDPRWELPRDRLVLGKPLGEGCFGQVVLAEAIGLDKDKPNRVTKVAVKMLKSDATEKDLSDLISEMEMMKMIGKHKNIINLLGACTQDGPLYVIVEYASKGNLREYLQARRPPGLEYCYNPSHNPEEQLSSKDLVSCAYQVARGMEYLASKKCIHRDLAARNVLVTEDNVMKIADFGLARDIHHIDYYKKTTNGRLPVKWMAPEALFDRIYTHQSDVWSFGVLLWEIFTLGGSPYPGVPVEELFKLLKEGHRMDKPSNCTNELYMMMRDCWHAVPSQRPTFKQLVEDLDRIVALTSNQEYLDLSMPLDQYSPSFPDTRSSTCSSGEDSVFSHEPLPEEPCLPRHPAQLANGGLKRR

COc1cc(OC)c(Cl)c(N2Cc3cnc4[nH]c(C(=O)N5CC(O)C5)cc4c3N(C)C2=O)c1 [Example 25, 3-(2-Chloro-3,5-dimethoxyphenyl)-8-[(3-hydroxyazetidin-1-yl)carbonyl]-1-methyl-1,3,4,7-tetrahydro-2H-pyrrolo[3′,2′:5,6]pyrido[4,3-d]pyrimidin-2-one]
< 100 nM: all assays above

COc1cc(OC)c(F)c(N2Cc3cnc4[nH]ccc4c3N(c3ccccc3)C2=O)c1F [Example 47, 3-(2,6-difluoro-3,5-dimethoxyphenyl)-1-phenyl-1,3,4,7-tetrahydro-2H-pyrrolo[3′,2′:5,6]pyrido[4,3-d]pyrimidin-2-one]
< 100 nM: all assays above

COc1cc(OC)c(Cl)c(N2Cc3cnc4[nH]ccc4c3N(c3cccnc3)C2=O)c1F [Example 108, 3-(2-chloro-6-fluoro-3,5-dimethoxyphenyl)-1-pyridin-3-yl-1,3,4,7-tetrahydro-2H-pyrrolo[3′,2′:5,6]pyrido[4,3-d]pyrimidin-2-one]
< 100 nM: all assays above

CCN1CCN(Cc2cc3c4c(cnc3[nH]2)CN(c2c(F)c(OC)cc(OC)c2F)C(=O)N4c2cccc(F)c2F)CC1 [Example 193, 3-(2,6-difluoro-3,5-dimethoxyphenyl)-1-(2,3-difluorophenyl)-8-[(4-ethylpiperazin-1-yl)methyl]-1,3,4,7-tetrahydro-2H-pyrrolo[3′,2′:5,6]pyrido[4,3-d]pyrimidin-2-one]
< 100 nM: all assays above

COc1cc(OC)c(F)c(N2Cc3cnc4[nH]ncc4c3N(CCn3cccn3)C2=O)c1F [Example 165, 3-(2,6-Difluoro-3,5-dimethoxyphenyl)-1-[2-(1H-pyrazol-1-yl)ethyl]-1,3,4,7-tetrahydro-2H-pyrazolo[4′,3′:5,6]pyrido[4,3-d]pyrimidin-2-one]
< 100 nM: all assays above

COc1cc(OC)c(F)c(N2Cc3cnc4[nH]c(CCN5CCOCC5)cc4c3N(c3ccccc3F)C2=O)c1F [Example 196, 3-(2,6-difluoro-3,5-dimethoxyphenyl)-1-(2-fluorophenyl)-8-(2-morpholin-4-ylethyl)-1,3,4,7-tetrahydro-2H-pyrrolo[3′,2′:5,6]pyrido[4,3-d]pyrimidin-2-one]
< 100 nM: all assays above

COc1cc(OC)c(F)c(N2Cc3cnc4[nH]c(CCN5CC(OC)C5)cc4c3N(C)C2=O)c1F [Example 144, 3-(2,6-difluoro-3,5-dimethoxyphenyl)-8-[2-(3-methoxyazetidin-1-yl)ethyl]-1-methyl-1,3,4,7-tetrahydro-2Hpyrrolo[3′,2′:5,6]pyrido[4,3-d]pyrimidin-2-one]
< 100 nM: all assays above

COc1cc(OC)cc(N2Cc3cnc4[nH]c(-c5cnn(C)c5)cc4c3N(C)C2=O)c1 [Example 11, 3-(3,5-Dimethoxyphenyl)-1-methyl-8-(1-methyl-1H-pyrazol-4-yl)-1,3,4,7-tetrahydro-2H-pyrrolo[3′,2′:5,6]pyrido[4,3-d]pyrimidin-2-one]
< 100 nM: all assays above

COc1cc(OC)c(F)c(N2Cc3cnc4[nH]ncc4c3N(C(C)C)C2=O)c1F [Example 91, 3-(2,6-difluoro-3,5-dimethoxyphenyl)-1-isopropyl-1,3,4,7-tetrahydro-2H-pyrazolo[4′,3′:5,6]pyrido[4,3-d]pyrimidin-2-one]
< 100 nM: all assays above

COc1cc(OC)c(F)c(N2Cc3cnc4[nH]ncc4c3N(Cc3cccc(F)n3)C2=O)c1F [Example 216, 3-(2,6-difluoro-3,5-dimethoxyphenyl)-1-[(6-fluoropyridin-2-yl)methyl]-1,3,4,7-tetrahydro-2H-pyrazolo[4′,3′:5,6]pyrido[4,3-d]pyrimidin-2-one]
< 100 nM: all assays above

COc1cc(OC)c(F)c(N2Cc3cnc4c(c3N(Cc3cccc(F)c3)C2=O)CC(=O)N4)c1F [Example 65, 3-(2,6-difluoro-3,5-dimethoxyphenyl)-1-(3-fluorobenzyl)-3,4,7,9-tetrahydro-1H-pyrrolo[3′,2′:5,6]pyrido[4,3-d]pyrimidine-2,8-dione]
< 100 nM: all assays above

COc1cc(OC)c(F)c(N2Cc3cnc4[nH]c(Cn5cccn5)cc4c3N(C)C2=O)c1F [Example 138, 3-(2,6-difluoro-3,5-dimethoxyphenyl)-1-methyl-8-(1H-pyrazol-1-ylmethyl)-1,3,4,7-tetrahydro-2H-pyrrolo[3′,2′:5,6]pyrido[4,3-d]pyrimidin-2-one]
< 100 nM: all assays above

COc1cc(OC)c(F)c(N2Cc3cnc4[nH]c(CN5CC[C@H](C#N)C5)cc4c3N(C)C2=O)c1F [Example 133, (3S)-1-{[3-(2,6-difluoro-3,5-dimethoxyphenyl)-1-methyl-2-oxo-2,3,4,7-tetrahydro-1H-pyrrolo[3′,2′:5,6]pyrido[4,3-d]pyrimidin-8-yl]methyl}pyrrolidine-3-carbonitrile]
< 100 nM: all assays above

COc1cc(OC)cc(N2Cc3cnc4[nH]ccc4c3N(Cc3ccccc3)C2=O)c1 [Example 6, 1-Benzyl-3-(3,5-dimethoxyphenyl)-1,3,4,7-tetrahydro-2H-pyrrolo[3′,2′:5,6]pyrido[4,3-d]pyrimidin-2-one]
< 100 nM: all assays above

CCN1C(=O)N(c2cc(OC)cc(OC)c2)Cc2cnc3[nH]ccc3c21 [Example 3, 3-(3,5-Dimethoxyphenyl)-1-ethyl-1,3,4,7-tetrahydro-2H-pyrrolo[3′,2′:5,6]pyrido[4,3-d]pyrimidin-2-one]
< 100 nM: all assays above

CCN1C(=O)N(c2c(F)c(OC)cc(OC)c2F)Cc2cnc3[nH]nc(C)c3c21 [Example 98, 3-(2,6-difluoro-3,5-dimethoxyphenyl)-1-ethyl-9-methyl-1,3,4,7-tetrahydro-2H-pyrazolo[4′,3′:5,6]pyrido[4,3-d]pyrimidin-2-one]
< 100 nM: all assays above

COc1cc(OC)cc(N2Cc3cnc4[nH]ccc4c3NC2=O)c1 [Example 2, 3-(3,5-Dimethoxyphenyl)-1,3,4,7-tetrahydro-2H-pyrrolo[3′,2′:5,6]pyrido[4,3-d]pyrimidin-2-one]
< 100 nM: all assays above

COc1cc(OC)c(F)c(N2Cc3cnc4c(c3N(Cc3ccccn3)C2=O)CC(=O)N4)c1F [Example 79, 3-(2,6-difluoro-3,5-dimethoxyphenyl)-1-(pyridin-2-ylmethyl)-3,4,7,9-tetrahydro-1H-pyrrolo[3′,2′:5,6]pyrido[4,3-d]pyrimidine-2,8-dione]
< 100 nM: all assays above

COc1cc(OC)cc(N2Cc3cnc4[nH]ccc4c3N(C)C2=O)c1 [Example 1, 3-(3,5-Dimethoxyphenyl)-1-methyl-1,3,4,7-tetrahydro-2H-pyrrolo[3′,2′:5,6]pyrido[4,3-d]pyrimidin-2-one]
< 100 nM: all assays above

Reference: patent US9611267B2, “Substituted tricyclic compounds as FGFR inhibitors” (Incyte Corporation, priority 2012, dated 2017)
